Data: ChEMBL document CHEMBL3608201, “Synthesis and biological evaluation of levofloxacin core-based derivatives with potent antibacterial activity against resistant Gram-positive pathogens” (Bioorg Med Chem Lett, 2015)
Converted amounts (≈) assume the structure as drawn.

Columns and labels:
Staphylococcus aureus [1] = assay: Antimicrobial activity against Staphylococcus aureus ATCC 25923 by standard broth microdilution method; format: functional
Staphylococcus aureus [2] = assay: Antimicrobial activity against levofloxacin-resistant Staphylococcus aureus clinical isolates by standard broth microdilution method; format: functional
Streptococcus pneumoniae [3] = assay: Antimicrobial activity against penicillin-resistant Streptococcus pneumoniae clinical isolates by standard broth microdilution method; format: functional
Streptococcus pyogenes = assay: Antimicrobial activity against Streptococcus pyogenes ATCC 19615 by standard broth microdilution method; format: functional
Escherichia coli [4] = assay: Antimicrobial activity against ciprofloxacin-resistant Escherichia coli clinical isolates by standard broth microdilution method; format: functional
[5] = tested on: Staphylococcus epidermidis; assay: Antimicrobial activity against Staphylococcus epidermidis ATCC 12228 by standard broth microdilution method; format: functional
Escherichia coli [6] = assay: Antimicrobial activity against Escherichia coli ATCC 25922 by standard broth microdilution method; format: functional
Staphylococcus aureus [7] = assay: Antimicrobial activity against methicillin-resistant Staphylococcus aureus clinical isolates by standard broth microdilution method; format: functional
Streptococcus pneumoniae [8] = assay: Antimicrobial activity against Streptococcus pneumoniae ATCC 49619 by standard broth microdilution method; format: functional
Pseudomonas aeruginosa = assay: Antimicrobial activity against Pseudomonas aeruginosa ATCC 27853 by standard broth microdilution method; format: functional
[9] = tested on: Staphylococcus epidermidis; assay: Antimicrobial activity against methicillin-resistant Staphylococcus epidermidis clinical isolates by standard broth microdilution method; format: functional
Staphylococcus aureus [10] = assay: Potency index, ratio of MIC for moxifloxacin to MIC for test compound against methicillin-resistant Staphylococcus aureus clinical isolates by standard broth microdilution method; format: functional
Staphylococcus aureus [11] = assay: Potency index, ratio of MIC for levofloxacin to MIC for test compound against methicillin-resistant Staphylococcus aureus clinical isolates by standard broth microdilution method; format: functional
[12] = Aqueous solubility of the compound in water; format: physicochemical

| Compound | MIC (Staphylococcus aureus [1]) [µg/mL] | MIC (Staphylococcus aureus [2]) [µg/mL] | MIC (Streptococcus pneumoniae [3]) [µg/mL] | MIC (Streptococcus pyogenes) [µg/mL] | MIC (Escherichia coli [4]) [µg/mL] | MIC [5] [µg/mL] | MIC (Escherichia coli [6]) [µg/mL] | MIC (Staphylococcus aureus [7]) [µg/mL] | MIC (Streptococcus pneumoniae [8]) [µg/mL] | MIC (Pseudomonas aeruginosa) [µg/mL] | MIC [9] [µg/mL] | Ratio (Staphylococcus aureus [10]) | Ratio (Staphylococcus aureus [11]) | solubility [12] [µg/mL] |
| --- | --- | --- | --- | --- | --- | --- | --- | --- | --- | --- | --- | --- | --- | --- |
| C[C@H]1COc2c(N3CC[C@@H](O)C3)c(F)cc3c(=O)c(C(=O)O)cn1c23 | 0.0625 (≈ 0.179 µM) | 2 (≈ 5.74 µM) | 0.5 (≈ 1.44 µM) | 0.25 (≈ 0.718 µM) | 0.5 (≈ 1.44 µM) | 0.0625 (≈ 0.179 µM) | 0.125 (≈ 0.359 µM) | 4 (≈ 11.5 µM) | 0.25 (≈ 0.718 µM) | 8 (≈ 23 µM) | 2 (≈ 5.74 µM) | – | – | – |
| C[C@H]1COc2c(N3CC[C@H](O)C3)c(F)cc3c(=O)c(C(=O)O)cn1c23 | 0.031 (≈ 0.089 µM) | 0.25 (≈ 0.718 µM) | 2 (≈ 5.74 µM) | 2 (≈ 5.74 µM) | 0.0625 (≈ 0.179 µM) | 0.031 (≈ 0.089 µM) | ≤ 0.016 | 1 (≈ 2.87 µM) | 2 (≈ 5.74 µM) | 1 (≈ 2.87 µM) | 1 (≈ 2.87 µM) | 4 | 32 | – |
| C[C@H]1COc2c(N3CC[C@H](O)C3)c(F)cc3c(=O)c(C(=O)O)cn1c23.O | 0.031 | 0.25 | ≤ 0.016 | ≤ 0.016 | 0.0625 | 0.125 | 0.031 | 2 | 0.125 | 1 | 1 | – | – | 370 |
| C[C@H]1COc2c(N3CC[C@H](O)C3)c(F)cc3c(=O)c(C(=O)[O-])cn1c23.[Na+] | 0.0625 | 2 | 4 | 4 | 0.25 | 0.125 | 0.0625 | 4 | 4 | 2 | 2 | – | – | – |
| C[C@H]1COc2c(N3CC[C@H](O)C3)c(F)cc3c(=O)c(C(=O)[O-])cn1c23.[K+] | 0.0625 | 2 | 4 | 4 | 0.5 | 0.5 | 0.125 | 4 | 8 | 4 | 4 | – | – | – |
